Measured values reported in patent US4064277A, “Method for processing soybeans” (Kikkoman Shoyu Co., Ltd., priority 1974, dated 1977).
One block for each compound: values may come before it.

How the values were obtained:
[1] = system: β-glycosidase; experiment: minimum effective amount of competitive inhibitor, operation of Example 1 repeated; details: based on the weight of the whole soybeans
Protocol: 40 Grams of whole soybeans were swelled by soaking at room temperature for 8 hours in 80 ml. of an aqueous solution containing glucono-1,5-lactone as a competitive inhibitor for β-glycosidase in such proportion, based on the weight of the soybeans, as shown in Table 1. In this case, two thirds times the amount of said aqueous solution was incorporated into the soybeans. To the soaked soybeans was added 320 ml. of hot water (at above 95° C.), and the resulting mixture was treated by means of a homogenizer to prepare a ground suspension, which was then filtered by use of a 100-mesh sieve to obtain an extract. The temperature at the time of the homogenization treatment effected with addition of said hot water was above 90° C., and, by said treatment, β-glycosidase contained in the soybeans was completely inactivated, and the mixture was freed from beany odor (grassy smell). The thus obtained extract (soybean milk) was subjected to organoleptic test by drinking to obtain such results as shown in Table 1. The aforesaid operation was repeated, except that the glucono-1,5-lactone was replaced by each of the competitive inhibitors shown in Table 2, and the minimum effective amount of the competitive inhibitor based on the weight of the whole soybeans was calculated. The same operation as in Example 1 was effected, except that the glucono-1,5-lactone was replaced by each of the competitive inhibitors set forth in Table 3, and the minimum effective amount of the competitive inhibitor based on the weight of the whole soybeans was calculated.

[2] = system: β-glycosidase; experiment: β-glycosidase inhibitory ratio in soaked whole soybeans (p-nitrophenyl-β-D-glucopyranoside substrate, 420 mμ); type: biochemical; details: for β-Glycosidase inhibitory ratio (%): soaking 8 hours at room temperature
Protocol: 40 Grams of whole soybeans were swelled by soaking at room temperature for 8 hours in 80 ml. of an aqueous solution containing glucono-1,5-lactone as a competitive inhibitor for β-glycosidase in such proportion, based on the weight of the soybeans, as shown in Table 1. In this case, two thirds times the amount of said aqueous solution was incorporated into the soybeans. To the soaked soybeans was added 320 ml. of hot water (at above 95° C.), and the resulting mixture was treated by means of a homogenizer to prepare a ground suspension, which was then filtered by use of a 100-mesh sieve to obtain an extract. The temperature at the time of the homogenization treatment effected with addition of said hot water was above 90° C., and, by said treatment, β-glycosidase contained in the soybeans was completely inactivated, and the mixture was freed from beany odor (grassy smell).
^2) The β-glycosidase inhibitory ratio (%) was measured in the
following manner: At the time of soybean soaking, in the above-mentioned
operation, 0.1 weight % based on the weight of the soybeans of
p-nitrophenyl-β-D-glucopyranoside was absorbed together with the
soaking solution into the soybeans. After lapse of the same soaking perio
as mentioned previously, the soybeans were boiled in water for 5 minutes.
Subsequently, the soybeans were soaked in a 2.5M sodium carbonate solutio
to elute p-nitrophenol which had been liberated in the soybeans due to th
action of β-glycosidase. The developed yellow color was determined b
using electrophotometer (420 mμ), and the ratio (%) of
β-glycosidase activity remaining in each sample was subtracted from
100%, assuming as 100% the β-glycosidase activity in the sample of
Run No. 1, which had not been incorporated with glucono-1,5-lactone, to
obtain a value. This value was decided as the inhibitory ratio (%).

Minimum effective amount (weight %) [1]: 20 weight %
SMILES: O=C1O[C@H](CO)[C@H](O)[C@H](O)[C@H]1O [Galactono-1,5-lactone, galactono-1,5-lactone]

Minimum effective amount (weight %) [1]: 0.01 weight %
SMILES: OC[C@H]1NC(O)[C@H](O)[C@@H](O)[C@@H]1O (stereo partly drawn) [Nojirimycin]

Minimum effective amount (weight %) [1]: 40 weight %
SMILES: OC[C@H]1OC(O)[C@H](O)[C@@H](O)[C@@H]1O (stereo partly drawn) [Glucose, glucose]

Minimum effective amount (weight %) [1]: 0.02 weight %
SMILES: C[C@@H]1OC(=O)[C@@H](O)[C@H](O)[C@@H]1O [Fucono-1,5-lactone, fucono-1,5-lactone]

β-Glycosidase inhibitory ratio (%) ([2]; Run No. 2: amount used 0.0015 weight %, incorporated into soybeans 0.0010 weight %): 13%
β-Glycosidase inhibitory ratio (%) ([2]; Run No. 3: amount used 0.015 weight %, incorporated into soybeans 0.010 weight %): 49%
β-Glycosidase inhibitory ratio (%) ([2]; Run No. 4: amount used 0.15 weight %, incorporated into soybeans 0.10 weight %): 73%
β-Glycosidase inhibitory ratio (%) ([2]; Run No. 5: amount used 1.5 weight %, incorporated into soybeans 1.0 weight %): 90%
activity of β-glycosidase in the soybeans ([2]; whole soybeans impregnated with 0.10 weight % or more, as aqueous solution): greatly inhibited
SMILES: O=C1O[C@H](CO)[C@@H](O)[C@H](O)[C@H]1O [Glucono-1,5-lactone, glucono-1,5-lactone]
